Like-named read-outs stand apart in the source and are kept apart here.
How the values were obtained:
Assay in all cases: Growth inhibition GI50 in vitro (CCK8/MTT, 72 h)
Calu-3 (Her2 amp) = type: cell-based; conditions: Homo sapiens
SK-BR-3 (Her2 amp) = type: cell-based, human; conditions: Homo sapiens
AU565 (Her2 amp) = type: cell-based, human; conditions: Homo sapiens
A549 (EGFR WT) = type: cell-based, human; conditions: Homo sapiens
[1] = test system: H1299 (EGFR wt, Nras Q61K); type: cell-based, human; conditions: Homo sapiens, NCI-H1299
[2] = test system: A431 (EGFR WT, amplification and high expression); type: cell-based, human; conditions: Homo sapiens, A-431
[3] = test system: H460 (EGFR wt, Kras G61H); type: cell-based, human; conditions: Homo sapiens, NCI-H460
N87 (HER2 Amp) = type: cell-based, human; conditions: Homo sapiens
H1975 (EGFR L858R/T790M) = type: cell-based, human; conditions: Homo sapiens, NCI-H1975
[4] = test system: PC-9ER (EGFR delE746-A750/T790M); type: cell-based, human; conditions: Homo sapiens, PC-9/ER; EGFR mutant cell line; range of GI50; read-out: GI50 PC9ER
PC-9 (EGFR dE746-A750) = type: cell-based, human; conditions: Homo sapiens
HCC827 (EGFR dE746-A750) = type: cell-based, human; conditions: Homo sapiens
H292 (EGFR WT) = type: cell-based; conditions: Homo sapiens, NCI-H292
[5] = Calu-3, EGFR wt, Her2 amp, read-out: GI50
[6] = SK-BR-3, HER2 positive cell line, range of GI50, read-out: GI50 SK-BR-3
[7] = SK-BR-3, EGFR wt, Her2 amp, read-out: GI50
[8] = AU565, HER2 positive cell line, range of GI50, read-out: GI50 AU-565
[9] = AU565, EGFR wt, Her2 amp, read-out: GI50
[10] = A549, EGFR wild type cell line, range of GI50, read-out: GI50 A549
[11] = A549, EGFR wt, Kras G12S, read-out: GI50
[12] = EGFR wild type cell line, range of GI50, read-out: GI50 H1299
[13] = H1299, EGFR wt, Nras Q61K, read-out: GI50
[14] = EGFR wild type cell line, range of GI50, read-out: GI50 A431
[15] = EGFR wild type cell line, range of GI50, read-out: GI50 H460
[16] = H460, EGFR wt, Kras G61H, read-out: GI50
[17] = HER2 positive cell line, range of GI50, read-out: GI50 N87
[18] = N87, EGFR wt, Her2 amp, read-out: GI50
[19] = EGFR mutant cell line, range of GI50, read-out: GI50 H1975
[20] = H1975, EGFR L858R/T790M, read-out: GI50
[21] = EGFR mutant cell line, range of GI50, read-out: GI50 PC-9
[22] = PC-9, EGFR dE746-A750, read-out: GI50
[23] = HCC827, EGFR mutant cell line, range of GI50, read-out: GI50 HCC827
[24] = HCC827, EGFR dE746-A750, read-out: GI50
[25] = Calu-3, Table 16, 1000 nM to 0.03 nM serial dilution, read-out: GI50 Calu3 (HER2 amp)
[26] = A549, Table 15, 1000 nM to 0.03 nM serial dilution, read-out: GI50 A549 (EGFR WT)
[27] = Table 16, 1000 nM to 0.03 nM serial dilution, read-out: GI50 N87 (HER2 amp)
[28] = Table 15, 1000 nM to 0.03 nM serial dilution, read-out: GI50 H1975 (EGFR L858R/T790M)
[29] = Table 15, 1000 nM to 0.03 nM serial dilution, read-out: GI50 PC-9 (EGFR dE746-A750)
[30] = Table 15, 1000 nM to 0.03 nM serial dilution, read-out: GI50 H292 (EGFR WT)

| GI50 (Calu-3 (Her2 amp); [5]) | GI50 (SK-BR-3 (Her2 amp); [6]) | GI50 (SK-BR-3 (Her2 amp); [7]) | GI50 (A549 (EGFR WT); [10]) | GI50 (A549 (EGFR WT); [11]) | GI50 [1, 12] | GI50 [1, 13] | GI50 ([2]; A431, EGFR wt, read-out: GI50) | GI50 [2, 14] | GI50 [3, 15] | GI50 [3, 16] | GI50 (H1975 (EGFR L858R/T790M); [19]) | GI50 (H1975 (EGFR L858R/T790M); [20]) | GI50 [4] | GI50 (PC-9 (EGFR dE746-A750); [21]) | GI50 (HCC827 (EGFR dE746-A750); [23]) | Structure (SMILES) | GI50 (AU565 (Her2 amp); [8]) | GI50 (AU565 (Her2 amp); [9]) | GI50 (N87 (HER2 Amp); [17]) | GI50 (N87 (HER2 Amp); [18]) | also measured |
| --- | --- | --- | --- | --- | --- | --- | --- | --- | --- | --- | --- | --- | --- | --- | --- | --- | --- | --- | --- | --- | --- |
| 23.4 nM | 10 to 100 nM | 39.1 nM | > 1000 nM | > 1000 nM | > 1000 nM | > 1000 nM | 438 nM | 100 to 1000 nM | > 1000 nM | > 1000 nM | 10 to 100 nM | 14.6 nM | < 10 nM | 10 to 100 nM | 10 to 100 nM | C=CC(=O)Nc1cc(Nc2nccc(Nc3ccc(OCc4ccccn4)c(Cl)c3)n2)c(OC)cc1N(C)CCN(C)C [Compound 18, N-(5-(4-(3-chloro-4-(pyridin-2-methoxyl)phenylamino)pyrimidin-2-ylamino)-2-((2-(dimethylamino)ethyl)(methyl)amino)-4-methoxyl-phenyl)-acrylamide] | 10 to 100 nM | 15.6 nM | 10 to 100 nM | 19.5 nM | GI50 (PC-9 (EGFR dE746-A750); [22]): 14.5 nM; GI50 (HCC827 (EGFR dE746-A750); [24]): 9.4 nM; GI50 (H292 (EGFR WT); H292, EGFR wt, read-out: GI50): > 1000 nM |
| 19.5 nM | 10 to 100 nM | 39.1 nM | > 1000 nM | 978 nM | > 1000 nM | > 1000 nM | 625 nM | 100 to 1000 nM | > 1000 nM | > 1000 nM | < 10 nM | 4.9 nM | < 10 nM | < 10 nM | < 10 nM | C=CC(=O)Nc1cc(Nc2ncc(Cl)c(Nc3ccc(OCc4ccccn4)c(Cl)c3)n2)c(OC)cc1N(C)CCN(C)C [Compound 19, N-(5-(5-chloro-4-(3-chloro-4-(pyridin-2-methoxyl)phenylamino)-pyrimidin-2-ylamino)-2-((2-(dimethylamino)ethyl)(methyl)amino)-4-methoxyl-phenyl)-acrylamide] | 10 to 100 nM | 17.5 nM | 10 to 100 nM | 19.5 nM | GI50 (PC-9 (EGFR dE746-A750); [22]): 7.3 nM; GI50 (HCC827 (EGFR dE746-A750); [24]): 6.4 nM; GI50 (H292 (EGFR WT); H292, EGFR wt, read-out: GI50): > 1000 nM |
| – | 10 to 100 nM | – | > 1000 nM | – | > 1000 nM | – | – | 100 to 1000 nM | > 1000 nM | – | < 10 nM | – | < 10 nM | 10 to 100 nM | 10 to 100 nM | C=CC(=O)Nc1cc(Nc2nccc(-n3ccc4c(OC)cccc43)n2)c(OC)cc1N(C)CCN(C)C [Compound 99, N-(5-(4-(4-methoxyl-1H-indol-1-yl)-pyrimidin-2-ylamino)-2-(2-(dimethylamino-ethyl)-methyl-amino)-4-methoxyl-phenyl)-acrylamide] | 10 to 100 nM | – | < 10 nM | – | GI50 (Calu-3 (Her2 amp); [25]): 3.26 nM; GI50 (A549 (EGFR WT); [26]): > 1000 nM; GI50 (N87 (HER2 Amp); [27]): 1.35 nM; GI50 (H1975 (EGFR L858R/T790M); [28]): 9.25 nM; GI50 (PC-9 (EGFR dE746-A750); [29]): 14.1 nM; GI50 (H292 (EGFR WT); [30]): > 1000 nM |
| 31.2 nM | 10 to 100 nM | 19.5 nM | > 1000 nM | > 1000 nM | > 1000 nM | > 1000 nM | 156 nM | 100 to 1000 nM | > 1000 nM | > 1000 nM | 10 to 100 nM | 14.6 nM | < 10 nM | < 10 nM | < 10 nM | C=CC(=O)Nc1cc(Nc2nccc(Nc3cccc(Cl)c3)n2)c(OC)cc1N(C)CCN(C)C [Compound 2, N-(5-(4-(3-chloro-phenylamino)-pyrimidin-2-ylamino)-2-(2-(dimethylamino-ethyl)-methyl-amino)-4-methoxyl-phenyl)-acrylamide] | 10 to 100 nM | 15.4 nM | < 10 nM | 10 nM | GI50 (PC-9 (EGFR dE746-A750); [22]): 5.4 nM; GI50 (HCC827 (EGFR dE746-A750); [24]): 2.3 nM; GI50 (H292 (EGFR WT); H292, EGFR wt, read-out: GI50): > 1000 nM |
| 12.5 nM | < 10 nM | 5.6 nM | > 1000 nM | 896 nM | > 1000 nM | > 1000 nM | 37.5 nM | 10 to 100 nM | > 1000 nM | > 1000 nM | < 10 nM | 4.6 nM | < 10 nM | < 10 nM | < 10 nM | C=CC(=O)Nc1cc(Nc2cc(Nc3ccc(F)c(Cl)c3)ncn2)c(OC)cc1N1CCN(C2CCN(C)CC2)CC1 [Compound 147, N-(5-(6-(3-chloro-4-fluoro-phenylamino)-pyrimidin-4-ylamino)-4-methoxyl-2-(4-(1-methylpiperidin-4-yl)-piperazin-1-yl)-phenyl)-acrylamide] | < 10 nM | 2.6 nM | < 10 nM | 4.8 nM | GI50 (PC-9 (EGFR dE746-A750); [22]): 0.58 nM; GI50 (HCC827 (EGFR dE746-A750); [24]): 4.7 nM; GI50 (H292 (EGFR WT); H292, EGFR wt, read-out: GI50): > 1000 nM |
| – | 10 to 100 nM | – | > 1000 nM | – | > 1000 nM | – | – | 100 to 1000 nM | > 1000 nM | – | 10 to 100 nM | – | < 10 nM | 10 to 100 nM | 10 to 100 nM | C=CC(=O)Nc1cc(Nc2cc(Nc3cc(OC)c(Cl)cc3Cl)ncn2)c(OC)cc1N(C)CCN(C)C [Compound 136, N-(5-(6-(2,4-dichloro-5-methoxyl-phenylamino)-pyrimidin-4-ylamino)-2-((2-dimethylamino-ethyl)-methyl-amino)-4-methoxyl-phenyl)-acrylamide] | 10 to 100 nM | – | 10 to 100 nM | – | GI50 (Calu-3 (Her2 amp); [25]): 14.7 nM; GI50 (A549 (EGFR WT); [26]): > 1000 nM; GI50 (N87 (HER2 Amp); [27]): 11.2 nM; GI50 (H1975 (EGFR L858R/T790M); [28]): 10.1 nM; GI50 (PC-9 (EGFR dE746-A750); [29]): 10.5 nM; GI50 (H292 (EGFR WT); [30]): > 1000 nM |
| 7.2 nM | < 10 nM | 4.8 nM | > 1000 nM | > 1000 nM | > 1000 nM | > 1000 nM | 117 nM | 100 to 1000 nM | > 1000 nM | > 1000 nM | 10 to 100 nM | 10 nM | 10 to 100 nM | < 10 nM | < 10 nM | C=CC(=O)Nc1cc(Nc2ncnc(Nc3cccc(F)c3)n2)c(OC)cc1N(C)CCN(C)C [Compound 114, N-(5-(4-(3-fluoro-phenylamino)-[1,3,5]triazin-2-ylamino)-2-((2-dimethylamino-ethyl)-methyl-amino)-4-methoxyl-phenyl)-acrylamide] | < 10 nM | 10 nM | < 10 nM | 4.8 nM | GI50 (PC-9 (EGFR dE746-A750); [22]): 2 nM; GI50 (HCC827 (EGFR dE746-A750); [24]): 1.1 nM; GI50 (H292 (EGFR WT); H292, EGFR wt, read-out: GI50): > 1000 nM |
| 12.5 nM | < 10 nM | 5.6 nM | > 1000 nM | > 1000 nM | > 1000 nM | > 1000 nM | 37.5 nM | 10 to 100 nM | > 1000 nM | > 1000 nM | < 10 nM | 3.8 nM | < 10 nM | < 10 nM | < 10 nM | C=CC(=O)Nc1cc(Nc2cc(Nc3ccc(F)c(Cl)c3)ncn2)c(OC)cc1N(C)CCN(C)C [Compound 140, N-(5-(6-(3-chloro-4-fluoro-phenylamino)-pyrimidin-4-ylamino)-2-((2-dimethylamino-ethyl)-methyl-amino)-4-methoxyl-phenyl)-acrylamide] | < 10 nM | 2.6 nM | < 10 nM | 4.8 nM | GI50 (PC-9 (EGFR dE746-A750); [22]): 0.38 nM; GI50 (HCC827 (EGFR dE746-A750); [24]): 1.1 nM; GI50 (H292 (EGFR WT); H292, EGFR wt, read-out: GI50): > 1000 nM |

— patent publication US10342796B2, “Acrylanilide derivative, preparation method, and applications thereof in pharmacy” (Ancureall Pharmaceutical (Shanghai) Co., Ltd., priority 2015, dated 2019)
